# US20250383357A1, “NOVEL FLUORESCENT DYES AND POLYMERS FROM DIHYDROPHENANTHRENE DERIVATIVES” (Beckman Coulter, Inc., priority 2022, published 2025)
# Assay: Fluorescence properties of DHP-cyanine dyes (excitation/absorbance and emission maxima, extinction coefficient)
# Assay type: physicochemical
# Conditions: for λem (emission wavelength) / λex (maximum excitation wavelength): Table 1
# Text: The term “absorbance maxima” or “Abs λ max” or “max λ abs” refer to wavelength of maximum absorbance measured by UV Vis spectroscopy.
SMILES,λem (emission wavelength),λex (maximum excitation wavelength),Abs max (purified dye),emission max (purified dye),extinction coefficient (purified dye)
"CC1(C)Cc2c3c(cc4c2C(C)(C)C(/C=C/C=C/C=C2\N(CCCCCC(=O)O)c5ccc(S(=O)(=O)O)cc5C2(C)C)=[N+]4CCCS(=O)(=O)O)S(=O)(=O)c2cc(S(=O)(=O)O)cc1c2-3 [Compound 36, 2-((l1-oxidaneyl)dioxo-l6-sulfaneyl)-7-((1E,3E)-5-((Z)-5-((l1-oxidaneyl)dioxo-l6-sulfaneyl)-1-(5-carboxypentyl)-3,3-dimethylindolin-2-ylidene)penta-1,3-dien-1-yl)-6-(3-((l1-oxidaneyl)dioxo-l6-sulfaneyl)propyl)-8,8,10,10-tetramethyl-9,10-dihydro-8H-thieno[2′,3′,4′,5′:4,5]phenanthro[2,1-b]pyrrol-6-ium 4,4-dioxide]",683 nm,663 nm,663 nm,683 nm,–
"CC1(C)C(/C=C/C=C/C=C2\N(CCCS(=O)(=O)O)c3ccc(C(=O)O)cc3C2(C)C)=[N+](CCCS(=O)(=O)O)c2cc3c4c(c21)CCc1cc(S(=O)(=O)[O-])cc(c1-4)S3(=O)=O [Compound 25, (Z)-2-((2E,4E)-5-(2-((l1-oxidaneyl)dioxo-l6-sulfaneyl)-6-(3-((l1-oxidaneyl)dioxo-l6-sulfaneyl)propyl)-8,8-dimethyl-4,4-dioxido-9,10-dihydro-8H-6l4-thieno[2′,3′,4′,5′:4,5]phenanthro[2,1-b]pyrrol-7-yl)penta-2,4-dien-1-ylidene)-1-(3-((l1-oxidaneyl)dioxo-l6-sulfaneyl)propyl)-3,3-dimethylindoline-5-carboxylic Acid]",686 nm,666 nm,666 nm,686 nm,150450 M⁻¹ cm⁻¹
